molecular target: USP30 (Homo sapiens (Human), UniProt Q70CQ3); assay: USP30 biochemical IC50 assay (fluorescence polarisation); details: enzyme and compound incubated 30 min at room temp; TAMRA labelled peptide-ubiquitin substrate 50 nM; read after 2 hr incubation; read-out: IC50 range
Method: USP30 Biochemical IC50 Assay
Dilution plates were prepared at 21 times the final concentration ([…] for a final concentration of 100 μM) in 50% DMSO in a 96-well polypropylene V-bottom plate (Greiner #651201). A typical 8-point dilution series to be 100, 30, 10, 3, 1, 0.3, 0.1, […].
Reactions were performed in duplicate in black 384 well plates (small volume, Greiner 784076) in a final reaction volume of 21 μl. Either 1 μl of 50% DMSO or diluted compound was added to the plate. USP30 was diluted in reaction buffer (40 mM Tris, pH 7.5, 0.005% Tween 20, 0.5 mg/ml BSA, 5 mM beta-mercaptoethanol) to the equivalent of 0.05 µl/well and 10 μl of diluted USP30 was added to the compound. Enzyme and compound were incubated for 30 min at room temp. Reactions were initiated by the addition of 50 nM of TAMRA labelled peptide linked to ubiquitin via an iso-peptide bond as fluorescence polarisation substrate. Reactions were read immediately after addition of substrate and following a 2 hr incubation at room temperature. Readings were performed on a Pherastar Plus (BMG Labtech). λ Excitation 540 nm; λ Emission 590 nm.

USP30, sequence (Q70CQ3 57-517): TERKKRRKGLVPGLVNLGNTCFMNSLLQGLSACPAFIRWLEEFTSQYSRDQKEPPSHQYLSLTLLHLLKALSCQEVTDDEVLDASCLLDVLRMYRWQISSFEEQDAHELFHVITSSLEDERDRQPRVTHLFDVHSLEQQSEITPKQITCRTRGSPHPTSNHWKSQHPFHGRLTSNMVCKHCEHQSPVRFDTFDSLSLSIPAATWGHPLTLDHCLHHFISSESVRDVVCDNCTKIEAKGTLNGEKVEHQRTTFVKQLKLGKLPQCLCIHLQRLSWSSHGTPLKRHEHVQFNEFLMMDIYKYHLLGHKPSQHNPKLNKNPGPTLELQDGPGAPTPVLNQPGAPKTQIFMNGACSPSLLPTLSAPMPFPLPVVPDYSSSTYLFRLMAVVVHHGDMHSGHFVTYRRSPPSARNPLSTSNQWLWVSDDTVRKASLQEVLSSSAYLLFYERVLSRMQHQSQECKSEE

| IC50 [nM] | Compound |
| --- | --- |
| 1000 to 10000 | CN1CCN(C(=O)c2ccc(-c3ccc4c(c3)CCN4C(=O)C3(F)CCN(C#N)C3)cc2)CC1 (centres unmarked) [Example 38, 3-Fluoro-3-(5-(4-(4-methylpiperazine-1-carbonyl)phenyl)indoline-1-carbonyl)pyrrolidine-1-carbonitrile] |
| 100 to 1000 | Cn1ncc2cc(-c3ccc4c(c3)CCN4C(=O)C3(F)CCN(C#N)C3)ccc21 (centres unmarked) [Example 39, 3-Fluoro-3-(5-(1-methyl-1H-indazol-5-yl)indoline-1-carbonyl)pyrrolidine-1-carbonitrile] |
| < 100 | Cc1ccc(F)c(-c2ccc3c(c2)CCN3C(=O)C2(F)CCN(C#N)C2)c1 (centres unmarked) [Example 40, 3-Fluoro-3-(5-(2-fluoro-5-methylphenyl)indoline-1-carbonyl)pyrrolidine-1-carbonitrile] |
| 100 to 1000 | Cc1ccc2[nH]ncc2c1-c1ccc2c(c1)CCN2C(=O)C1(F)CCN(C#N)C1 (centres unmarked) [Example 41, 3-Fluoro-3-(5-(5-methyl-1H-indazol-4-yl)indoline-1-carbonyl)pyrrolidine-1-carbonitrile] |
| 100 to 1000 | N#CN1CCC(F)(C(=O)N2CCc3cc(-c4cccc(NS(=O)(=O)C5CC5)c4)ccc32)C1 (centres unmarked) [Example 42, N-(3-(1-(1-Cyano-3-fluoropyrrolidine-3-carbonyl)indolin-5-yl)phenyl)cyclopropanesulfonamide] |
| 100 to 1000 | COc1ccc(-c2ccc3c(c2)CCN3C(=O)C2(F)CCN(C#N)C2)cn1 (centres unmarked) [Example 43, 3-Fluoro-3-(5-(6-methoxypyridin-3-yl)indoline-1-carbonyl)pyrrolidine-1-carbonitrile] |
| 1000 to 10000 | CCN(C(=O)[C@@H]1CCN(C#N)C1)c1ccc(-c2ccc(C#N)cc2)cn1 [Example 44, (R)-1-Cyano-N-(5-(4-cyanophenyl)pyridin-2-yl)-N-ethylpyrrolidine-3-carboxamide] |
| 1000 to 10000 | CN(Cc1nc2ccccc2s1)C(=O)C1CCN(C#N)C1 (centres unmarked) [Example 45, N-(Benzo[d]thiazol-2-ylmethyl)-1-cyano-N-methylpyrrolidine-3-carboxamide] |
| 1000 to 10000 | CN(Cc1cc(-c2ccccc2)no1)C(=O)C1CCN(C#N)C1 (centres unmarked) [Example 46, 1-Cyano-N-methyl-N-((3-phenylisoxazol-5-yl)methyl)pyrrolidine-3-carboxamide] |
| 100 to 1000 | CN(Cc1csc(-c2ccccc2)n1)C(=O)C1CCN(C#N)C1 (centres unmarked) [Example 47, 1-Cyano-N-methyl-N-((2-phenylthiazol-4-yl)methyl)pyrrolidine-3-carboxamide] |
| 100 to 1000 | N#CN1CCC2(CCN(c3cccc(-c4ccccc4)c3)C2=O)C1 (centres unmarked) [Example 49, 7-([1,1′-Biphenyl]-3-yl)-6-oxo-2,7-diazaspiro[4,4]nonane-2-carbonitrile] |
| 100 to 1000 | CCc1cccc(-c2cccc3c2CCN3C(=O)[C@@H]2CCN(C#N)C2)c1 [Example 50, (R)-3-(4-(3-Ethylphenyl)indoline-1-carbonyl)pyrrolidine-1-carbonitrile] |
| 1000 to 10000 | N#CN1CCC(C(=O)N2CCc3nc(-c4ccccc4)ccc32)C1 (centres unmarked) [Example 51, 3-(5-Phenyl-2,3-dihydro-1H-pyrrolo[3,2-b]pyridine-1-carbonyl)pyrrolidine-1-carbonitrile] |
| 100 to 1000 | N#CN1CC[C@@](F)(C(=O)N2CCc3cc(-c4ccccc4)ccc32)C1 [Example 53, (S)-3-Fluoro-3-(5-phenylindoline-1-carbonyl)pyrrolidine-1-carbonitrile] |
| 100 to 1000 | N#CN1CC[C@](F)(C(=O)N2CCc3cc(-c4ccccc4)ccc32)C1 [Example 54, (R)-3-Fluoro-3-(5-phenylindoline-1-carbonyl)pyrrolidine-1-carbonitrile] |
| 100 to 1000 | N#CN1CC[C@@](F)(C(=O)N2CCc3cc(-c4cccc(Cl)c4)cnc32)C1 [Example 55, (S)-3-(5-(3-Chlorophenyl)-2,3-dihydro-1H-pyrrolo[2,3-b]pyridine-1-carbonyl)-3-fluoropyrrolidine-1-carbonitrile] |
| < 100 | N#CN1CC[C@](F)(C(=O)N2CCc3cc(-c4cccc(Cl)c4)cnc32)C1 [Example 56, (R)-3-(5-(3-Chlorophenyl)-2,3-dihydro-1H-pyrrolo[2,3-b]pyridine-1-carbonyl)-3-fluoropyrrolidine-1-carbonitrile] |
| 1000 to 10000 | CC(C)Cn1nccc1-c1ccc2c(c1)CCN2C(=O)C1(F)CCN(C#N)C1 (centres unmarked) [Example 58, 3-Fluoro-3-(5-(1-isobutyl-1H-pyrazol-5-yl)indoline-1-carbonyl)pyrrolidine-1-carbonitrile] |
| 1000 to 10000 | N#CN1CCC(F)(C(=O)N2CCc3cc(-c4cnn(Cc5ccccc5)c4)ccc32)C1 (centres unmarked) [Example 59, 3-(5-(1-Benzyl-1H-pyrazol-4-yl)indoline-1-carbonyl)-3-fluoropyrrolidine-1-carbonitrile] |
| 100 to 1000 | N#CN1CC[C@H](C(=O)N2CCc3cc(-c4cccc5[nH]ncc45)cnc32)C1 [Example 60, (S)-3-(5-(1H-indazol-4-yl)-2,3-dihydro-1H-pyrrolo[2,3-b]pyridine-1-carbonyl)-pyrrolidine-1-carbonitrile] |
| 1000 to 10000 | N#CN1CC[C@@H](C(=O)N2CCc3cc(-c4cccc5[nH]ncc45)cnc32)C1 [Example 61, (R)-3-(5-(1H-Indazol-4-yl)-2,3-dihydro-1H-pyrrolo[2,3-b]pyridine-1-carbonyl)-pyrrolidine-1-carbonitrile] |
| 1000 to 10000 | N#CN1CCC(F)(C(=O)N2CCc3cc(-c4ccnn4Cc4ccccn4)ccc32)C1 (centres unmarked) [Example 62, 3-Fluoro-3-(5-(1-(pyridin-2-ylmethyl)-1H-pyrazol-5-yl)indoline-1-carbonyl)pyrrolidine-1-carbonitrile] |
| 1000 to 10000 | N#CN1CCC(F)(C(=O)N2CCc3cc(-c4ccnn4Cc4cccnc4)ccc32)C1 (centres unmarked) [Example 63, 3-Fluoro-3-(5-(1-(pyridin-3-ylmethyl)-H-pyrazol-5-yl)indoline-1-carbonyl)pyrrolidine-1-carbonitrile] |
| 1000 to 10000 | N#CN1CCC(F)(C(=O)N2CCc3cc(-c4ccnn4Cc4ccccc4Cl)ccc32)C1 (centres unmarked) [Example 64, 3-(5-(1-(2-Chlorobenzyl)-1H-pyrazol-5-yl)indoline-1-carbonyl)-3-fluoropyrrolidine-1-carbonitrile] |
| 100 to 1000 | N#CN1CCC(F)(C(=O)N2CCc3cc(-c4ccnn4Cc4cccc(Cl)c4)ccc32)C1 (centres unmarked) [Example 65, 3-(5-(1-(3-Chlorobenzyl)-1H-pyrazol-5-yl)indoline-1-carbonyl)-3-fluoropyrrolidine-1-carbonitrile] |
| 100 to 1000 | N#CN1CCC(F)(C(=O)N2CCc3cc(-c4ccnn4Cc4ccc(Cl)cc4)ccc32)C1 (centres unmarked) [Example 66, 3-(5-(1-(4-Chlorobenzyl)-1H-pyrazol-5-yl)indoline-1-carbonyl)-3-fluoropyrrolidine-1-carbonitrile] |
| 1000 to 10000 | N#CN1CCC(F)(C(=O)N2CCc3cc(C(=O)NCc4ccccc4)ccc32)C1 (centres unmarked) [Example 67, N-Benzyl-1-(1-cyano-3-fluoropyrrolidine-3-carbonyl)indoline-5-carboxamide] |
| 100 to 1000 | CCc1cccc(-c2cc(C(=O)NC)cc3c2CCN3C(=O)[C@@H]2CCN(C#N)C2)c1 [Example 68, (R)-1-(1-Cyanopyrrolidine-3-carbonyl)-4-(3-ethylphenyl)-N-methylindoline-6-carboxamide] |
| 1000 to 10000 | CNC(=O)c1cc(-c2ccccc2)c2c(c1)N(C(=O)[C@@H]1CCN(C#N)C1)CC2 [Example 69, (R)-1-(1-Cyanopyrrolidine-3-carbonyl)-N-methyl-4-phenylindoline-6-carboxamide] |

From US10640498B2, “Compounds” (MISSION THERAPEUTICS LIMITED, priority 2016, dated 2020)
